We go through four compounds from paper PMC4703549 (Cancer research, 2015).

The subject of one test is TNK2 D163E cells. In kind it is cell-based, murine. The following applies: for IC50: Ba/F3 TNK2 D163E, no IL3, 72 hours, MTS.
The test system of the next test is TNK2 R806Q cells. In kind it is cell-based, murine. The note with it: for IC50: Ba/F3 TNK2 R806Q, no IL3, 72 hours, MTS.
The test system of test [1] is TNK2 D163E T205I and T205M Ba/F3 lines. It is filed as cell-based, murine. The following applies: T205I and T205M added to D163E, IL-3 independent Ba/F3 lines.
The subject of test [2] is TNK2 S808* and TNK2 Q831fs. Nature of the test: Phosphorylation of TNK2 truncation mutants in transfected 293T17 cells. The following applies: 1 μM dasatinib, 2.5 μM XMD8-87 or 2.5 μM XMD16-5, 3.5 hours. In kind it is cell-based, human.
In a further test the test system is parental Ba/F3 cells. The test is described as follows: Inhibitor study, MTS viability of control Ba/F3 cells grown in IL3. The note with it: IL3 containing medium; highest tested concentration 1,000 nM. In kind it is cell-based, murine.

Entries after “also recorded” stand apart in the source; their conditions may differ. Where two headings read alike, the source gives them in different places.

Turning to `c1ccc(-c2oc3ncnc(NC[C@@H]4CCCO4)c3c2-c2ccccc2)cc1` [AIM-100], the IC50 in the test on TNK2 D163E cells was found to be 91 nM; in the test on TNK2 R806Q cells, 320 nM. In test [1], the “sensitivity of D163E cell lines carrying gatekeeper mutations” value was “resistance”.

`COc1cc(N2CCN(C)CC2)ccc1Nc1ncc2c(n1)N(C)c1ccccc1C(=O)N2` [XMD8-87]: the IC50 with TNK2 D163E cells was 38 nM; in the test with TNK2 R806Q cells it was 113 nM. Besides, the “sensitivity of D163E cell lines carrying gatekeeper mutations” value in test [1] is on record as “resistance”. In test [2], the “inhibition of phosphorylation of TNK2 truncation mutants” value (“inhibition” for short) is “vast majority of phosphorylation was blocked; also recorded: inhibited; also recorded: potently inhibit”.

As for `CN1c2ccccc2C(=O)Nc2cnc(Nc3ccc(N4CCC(O)CC4)cc3)nc21` [XMD16-5], the IC50 in the test on TNK2 D163E cells was 16 nM; with TNK2 R806Q cells it was 77 nM. Further, the “sensitivity of D163E cell lines carrying gatekeeper mutations” value in test [1] is “resistance”. In test [2], the “inhibition” value is recorded as “vast majority of phosphorylation was blocked; also recorded: inhibited; also recorded: potently inhibit”.

Turning to `Cc1nc(Nc2ncc(C(=O)Nc3c(C)cccc3Cl)s2)cc(N2CCN(CCO)CC2)n1` [dasatinib, N-(2-chloro-6-methyl-phenyl)-2-(6-(4-(2-hydroxyethyl)-piperazin-1-yl)-2-methylpyrimidin-4-ylamino)thiazole-5-carboxamide], the “sensitivity of post-transformation line” value in the test with TNK2 D163E cells (Ba/F3 TNK2 D163E post-interleukin-3-independent transformation) and in the test with TNK2 R806Q cells (Ba/F3 TNK2 R806Q post-interleukin-3-independent transformation) was “sensitive to dasatinib at low nanomolar concentrations” throughout. In addition, the IC50 with TNK2 D163E cells was under 10 nM; in the test on TNK2 D163E cells (listed as Dasatinib), about 0.1 nM; in the test with TNK2 R806Q cells it was under 10 nM; in the test on TNK2 R806Q cells (listed as Dasatinib) it was 1.3 nM. The “sensitivity of control or pre-transformation cell lines grown in IL3” value with parental Ba/F3 cells is recorded as “did not show sensitivity; also recorded: completely insensitive”. In addition, in test [1], the “sensitivity of D163E cell lines carrying gatekeeper mutations” value is “resistance”. Also, the “inhibition” value in test [2] is listed as “vast majority of phosphorylation was blocked; also recorded: inhibited”.
